Reference: patent US8822482B2, “Icotinib hydrochloride, synthesis, crystalline forms, pharmaceutical compositions, and uses thereof” (Beta Pharma, Inc., priority 2008, dated 2014)
Where a name gives a salt, the structure may show the parent alone.

What was measured:
[1] = Pharmacokinetic study of the different crystalline forms and the free base in rats; assay type: in vivo, Wistar rats; settings: fasted Wistar rats, oral suspension, dose equivalent to 35 mg/kg Icotinib hydrochloride, plasma
Description: Drugs and reagents: Icotinib (free base) and Icotinib hydrochloride crystalline forms I, II, III, and IV were ground to fine particles. The material content (purity) was not less than 99.0%. Sodium carboxymethyl cellulose was medical supply graded. Experimental animals: Wistar rats, male and female, 150-220 g each. Pharmaceutical preparation: Weigh the appropriate amount of each substance and add sodium carboxymethyl cellulose to 0.5%. Prepare a suspension at a final concentration of 3.5 mg/mL in water. Administration and sample collection: Each suspension was administered orally to fasted Wistar rats at a dose equivalent to 35 mg/kg Icotinib hydrochloride in a dose volume of 10 ml/kg. […] After purification, samples were analyzed by high performance liquid chromatography. The chromatographic conditions utilized C18-silane bonded silica as stationary phase, 0.02 mol/L of sodium dihydrogen phosphate in acetonitrile (40:60, using sodium hydroxide solution to adjust pH to 5.0) as the mobile phase and a detection wavelength of 334 nm.

[2] = tested on: human A431 (human epidermoid carcinoma cell line) xenograft tumor; experiment: Tumor inhibition on human A431 xenograft in nude mice; assay type: in vivo, BALB/C nude mice
Description: This was a preliminary study to compare Icotinib hydrochloride Crystalline Form I with erlotinib hydrochloride on inhibition of human A431 (human epidermoid carcinoma cell line) xenograft tumor.
Methods: The high EGFR-expressing human A431 (human epidermoid carcinoma cell line) cell line was selected for the xenograft study.
Tumor transplantation method: A431 human epidermoid cancer cells were inoculated subcutaneously in the right armpit of BALB/C nude mice to generate tumor nodules. These nodules were harvested, cut into 6 mm^3 blocks for routine inoculation and implanted into each mouse for the study. When tumors reached approximately 20 mm^3 in size (6-7 days), the animals were randomly divided into 4 groups of 6-9 animals/each group and body weights were recorded. The groups consisted of a control group (no drug treatment), an erlotinib hydrochloride treatment group (200 mg/kg) and high and low dose Icotinib hydrochloride Crystalline Form I treatment groups (200 and 50 mg/kg). Drugs were administered by oral gavage once daily; dosing frequency depended on the individual case for tumor growth. Tumor volume [tumor volume (V)=tumor size (L)×short diameter of tumor (S)^2/2] was measured using calipers once every 3 days. The animals were sacrificed 24-hour after the last drug administration and weighed. The tumor was removed and weighed to accurately calculate the tumor size. All group data was analyzed using the t test. If the p value was <0.05, it was considered to be statistically significant. Efficacy determination: tumor inhibition rate=[1−treatment group mean tumor weight (T)/control group mean tumor weight (C)]×100%

Row | Compound | The area under the concentration-time curve (0-infinity) [1] | The area under the concentration-time curve (0-t) [1] | body weight and appearance at experiment termination ([2]; A431 xenograft nude mice) | tumor inhibition rate ([2]; A431 xenograft, 200 mg/kg oral gavage once daily (later reduced to 100 mg/kg)) | animals died ([2]; after 5 days at 200 mg/kg)
1 | C#Cc1cccc(Nc2ncnc3cc4c(cc23)OCCOCCOCCO4)c1 [Free base, 4-[(3-ethynyl-phenyl)amino]-6,7-benzo-12-crown-quinazoline, reference compound] | 29.36 | 28.83 |  |  | 
2 | C#Cc1cccc(Nc2ncnc3cc(OCCOC)c(OCCOC)cc23)c1 [erlotinib, Erlotinib Hydrochloride, reference compound] |  |  | lost weight and appeared sluggish | 77.6% | 3 of 8
